Measurements published in ChEMBL document CHEMBL5465560, “Selectivity Literature for EUbOPEN Chemogenomic Library” (2024).

Experiments:
[1] = molecular target: T1, Rhodopsin kinase GRK7 (Homo sapiens) (UniProt Q8WTQ7); test: Selectivity interaction (KinomeScan (DiscoverX)) EUB0000666a GRK7; details: at 10 µM
T1 sequence (whole entry): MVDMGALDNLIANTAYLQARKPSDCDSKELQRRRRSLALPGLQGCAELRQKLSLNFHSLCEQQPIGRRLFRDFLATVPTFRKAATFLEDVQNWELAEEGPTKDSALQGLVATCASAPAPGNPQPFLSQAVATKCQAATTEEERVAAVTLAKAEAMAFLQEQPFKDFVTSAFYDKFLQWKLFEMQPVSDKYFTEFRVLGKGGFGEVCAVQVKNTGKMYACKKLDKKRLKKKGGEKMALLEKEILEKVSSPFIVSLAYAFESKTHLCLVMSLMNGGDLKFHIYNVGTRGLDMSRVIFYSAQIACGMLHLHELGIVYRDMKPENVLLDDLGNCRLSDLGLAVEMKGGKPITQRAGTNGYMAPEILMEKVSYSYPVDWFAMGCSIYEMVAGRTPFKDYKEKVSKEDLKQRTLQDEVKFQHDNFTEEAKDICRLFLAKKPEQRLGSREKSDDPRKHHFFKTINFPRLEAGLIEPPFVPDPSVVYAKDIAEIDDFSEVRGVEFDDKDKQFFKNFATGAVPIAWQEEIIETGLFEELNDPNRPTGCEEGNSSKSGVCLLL

[2] = molecular target: Ribosomal protein S6 kinase alpha-2 (Homo sapiens) (UniProt Q15349); test: Selectivity interaction (KinomeScan (DiscoverX)) EUB0000666a RPS6KA2; details: at 10 µM
[3] = molecular target: Histone-lysine N-methyltransferase KMT5C (Homo sapiens) (UniProt Q86Y97); details: at 1 µM
Sequence of Histone-lysine N-methyltransferase KMT5C (Homo sapiens) (Q86Y97 whole entry, looked up): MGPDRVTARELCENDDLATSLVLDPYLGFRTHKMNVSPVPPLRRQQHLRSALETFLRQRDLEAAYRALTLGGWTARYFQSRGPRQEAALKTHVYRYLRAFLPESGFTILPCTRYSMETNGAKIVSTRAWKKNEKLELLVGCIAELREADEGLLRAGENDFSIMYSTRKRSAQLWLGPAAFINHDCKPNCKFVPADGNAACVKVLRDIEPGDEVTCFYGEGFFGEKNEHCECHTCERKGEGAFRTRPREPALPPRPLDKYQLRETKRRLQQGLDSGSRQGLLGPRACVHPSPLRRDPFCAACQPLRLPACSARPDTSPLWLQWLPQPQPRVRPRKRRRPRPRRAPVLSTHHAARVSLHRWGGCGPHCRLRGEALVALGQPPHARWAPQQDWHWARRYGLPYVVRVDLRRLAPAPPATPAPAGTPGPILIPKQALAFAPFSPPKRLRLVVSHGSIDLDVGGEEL

D(3) dopamine receptor = D(3) dopamine receptor (Homo sapiens, UniProt P35462); test: Selectivity interaction (GPCR panel (PDSP screen)) EUB0001079a DRD3; details: at 10 µM
Sequence of D(3) dopamine receptor (P35462 whole entry): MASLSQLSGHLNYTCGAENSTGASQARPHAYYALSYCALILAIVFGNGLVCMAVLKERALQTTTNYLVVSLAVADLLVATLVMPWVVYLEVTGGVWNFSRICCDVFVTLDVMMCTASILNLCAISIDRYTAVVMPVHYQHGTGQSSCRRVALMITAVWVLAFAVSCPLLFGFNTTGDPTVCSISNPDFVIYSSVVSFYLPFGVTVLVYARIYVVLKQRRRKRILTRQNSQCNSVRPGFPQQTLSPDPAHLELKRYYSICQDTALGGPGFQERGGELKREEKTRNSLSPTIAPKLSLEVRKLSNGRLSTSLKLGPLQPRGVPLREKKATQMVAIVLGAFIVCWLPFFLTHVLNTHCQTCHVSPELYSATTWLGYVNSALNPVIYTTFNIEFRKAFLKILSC

[4] = molecular target: T2, Tyrosine-protein kinase Tec (Homo sapiens) (UniProt P42680); details: at 10 µM
T2 sequence (whole entry): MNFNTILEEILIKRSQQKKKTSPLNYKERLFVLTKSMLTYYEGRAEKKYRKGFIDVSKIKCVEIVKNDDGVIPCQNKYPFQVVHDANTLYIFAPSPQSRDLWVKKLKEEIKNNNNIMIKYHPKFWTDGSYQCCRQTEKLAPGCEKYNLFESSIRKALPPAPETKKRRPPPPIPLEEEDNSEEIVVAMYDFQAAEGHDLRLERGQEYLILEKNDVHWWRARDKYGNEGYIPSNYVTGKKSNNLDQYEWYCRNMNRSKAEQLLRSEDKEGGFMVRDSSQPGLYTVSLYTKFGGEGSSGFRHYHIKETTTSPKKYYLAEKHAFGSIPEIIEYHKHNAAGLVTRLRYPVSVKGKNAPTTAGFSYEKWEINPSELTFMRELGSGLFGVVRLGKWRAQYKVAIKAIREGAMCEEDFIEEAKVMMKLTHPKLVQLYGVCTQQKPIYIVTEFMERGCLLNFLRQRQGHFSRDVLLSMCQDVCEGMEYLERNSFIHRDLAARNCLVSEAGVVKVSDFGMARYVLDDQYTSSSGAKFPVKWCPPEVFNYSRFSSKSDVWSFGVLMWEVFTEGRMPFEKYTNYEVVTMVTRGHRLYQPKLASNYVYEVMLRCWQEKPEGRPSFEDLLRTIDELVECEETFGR

[5] = molecular target: Protein-tyrosine kinase 2-beta (Homo sapiens) (UniProt Q14289); details: at 10 µM
Sequence of Protein-tyrosine kinase 2-beta (Homo sapiens) (Q14289 whole entry, looked up): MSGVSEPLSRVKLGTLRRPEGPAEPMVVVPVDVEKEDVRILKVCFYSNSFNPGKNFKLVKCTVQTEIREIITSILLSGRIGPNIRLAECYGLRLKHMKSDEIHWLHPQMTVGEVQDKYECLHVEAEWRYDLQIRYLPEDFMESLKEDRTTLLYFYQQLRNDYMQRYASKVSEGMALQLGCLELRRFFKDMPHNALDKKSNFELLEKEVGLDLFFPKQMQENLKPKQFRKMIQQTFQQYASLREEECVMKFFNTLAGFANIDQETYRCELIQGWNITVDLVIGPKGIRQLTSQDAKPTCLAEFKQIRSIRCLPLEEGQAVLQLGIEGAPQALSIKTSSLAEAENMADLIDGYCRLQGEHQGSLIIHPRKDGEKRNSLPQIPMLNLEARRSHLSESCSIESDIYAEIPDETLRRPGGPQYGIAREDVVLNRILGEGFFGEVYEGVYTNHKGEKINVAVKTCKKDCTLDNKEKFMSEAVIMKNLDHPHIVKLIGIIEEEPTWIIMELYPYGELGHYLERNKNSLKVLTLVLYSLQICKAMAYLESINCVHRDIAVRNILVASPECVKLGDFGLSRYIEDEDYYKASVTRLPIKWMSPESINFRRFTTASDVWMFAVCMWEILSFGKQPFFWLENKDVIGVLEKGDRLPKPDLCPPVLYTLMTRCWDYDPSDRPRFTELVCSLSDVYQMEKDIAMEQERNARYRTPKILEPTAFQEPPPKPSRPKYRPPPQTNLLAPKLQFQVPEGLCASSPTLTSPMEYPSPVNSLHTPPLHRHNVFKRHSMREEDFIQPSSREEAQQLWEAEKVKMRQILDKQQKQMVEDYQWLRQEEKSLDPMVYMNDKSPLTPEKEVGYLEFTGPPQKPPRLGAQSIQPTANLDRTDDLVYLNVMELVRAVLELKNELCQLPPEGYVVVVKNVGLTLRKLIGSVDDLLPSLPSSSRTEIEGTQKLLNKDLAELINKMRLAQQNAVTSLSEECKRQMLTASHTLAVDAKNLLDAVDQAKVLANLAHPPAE

[6] = molecular target: Calcium/calmodulin-dependent protein kinase type II subunit delta (Homo sapiens) (UniProt Q13557); test: Selectivity interaction (ActivX KiNativ screen (kinase selectivity in THP-1 cell lysates)) EUB0000639a CAMK2D; type: subcellular; details: lysate, at 0.2 µM
[7] = molecular target: Serine/threonine-protein kinase 38-like (Homo sapiens) (UniProt Q9Y2H1); test: Selectivity interaction (ActivX KiNativ screen (kinase selectivity in THP-1 cell lysates)) EUB0000639a STK38L; type: subcellular; details: lysate, at 0.01 µM
Sequence of Serine/threonine-protein kinase 38-like (Homo sapiens) (Q9Y2H1 2-464 limits assumed): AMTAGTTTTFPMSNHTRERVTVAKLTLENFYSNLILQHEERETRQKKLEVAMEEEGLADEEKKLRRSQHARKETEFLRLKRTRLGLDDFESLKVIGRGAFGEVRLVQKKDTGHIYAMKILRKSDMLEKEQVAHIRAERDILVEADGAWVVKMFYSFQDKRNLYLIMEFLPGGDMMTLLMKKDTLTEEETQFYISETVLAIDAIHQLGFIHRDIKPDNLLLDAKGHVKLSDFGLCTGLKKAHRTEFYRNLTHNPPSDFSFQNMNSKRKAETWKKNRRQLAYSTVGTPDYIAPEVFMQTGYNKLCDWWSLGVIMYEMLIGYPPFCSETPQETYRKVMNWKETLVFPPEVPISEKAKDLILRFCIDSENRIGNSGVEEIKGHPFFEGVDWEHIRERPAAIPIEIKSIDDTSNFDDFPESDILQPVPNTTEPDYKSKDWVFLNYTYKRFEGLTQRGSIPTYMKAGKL

[8] = molecular target: cAMP-dependent protein kinase catalytic subunit beta (Homo sapiens) (UniProt P22694); test: Selectivity interaction (KinomeScan (DiscoverX)) EUB0000092b PRKACB; details: at 10 µM
[9] = molecular target: LIM domain kinase 1 (Homo sapiens) (UniProt P53667); test: Selectivity interaction (KinomeScan (DiscoverX)) EUB0000618a LIMK1; details: at 10 µM
Sequence of LIM domain kinase 1 (Homo sapiens) (P53667 whole entry, looked up, the tested form may be a part, canonical isoform): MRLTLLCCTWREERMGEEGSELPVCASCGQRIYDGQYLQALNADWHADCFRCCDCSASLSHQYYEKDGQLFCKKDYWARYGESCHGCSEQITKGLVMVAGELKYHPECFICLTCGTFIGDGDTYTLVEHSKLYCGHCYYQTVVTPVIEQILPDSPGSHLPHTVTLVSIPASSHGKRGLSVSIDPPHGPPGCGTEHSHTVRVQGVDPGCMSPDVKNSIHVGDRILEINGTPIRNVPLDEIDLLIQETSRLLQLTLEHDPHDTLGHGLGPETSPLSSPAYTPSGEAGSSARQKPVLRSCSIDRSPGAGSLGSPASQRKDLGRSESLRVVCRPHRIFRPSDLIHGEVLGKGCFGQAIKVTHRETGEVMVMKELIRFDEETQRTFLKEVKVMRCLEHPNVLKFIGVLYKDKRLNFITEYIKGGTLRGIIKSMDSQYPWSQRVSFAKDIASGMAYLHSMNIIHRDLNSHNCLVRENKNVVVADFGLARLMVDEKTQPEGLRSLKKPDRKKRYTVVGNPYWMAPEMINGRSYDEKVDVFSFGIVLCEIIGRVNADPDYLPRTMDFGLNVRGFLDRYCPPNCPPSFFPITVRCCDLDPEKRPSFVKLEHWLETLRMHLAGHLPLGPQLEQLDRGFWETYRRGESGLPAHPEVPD

[10] = molecular target: Casein kinase I isoform gamma-2 (Homo sapiens) (UniProt P78368); test: Selectivity interaction (KinomeScan (DiscoverX)) EUB0000618a CSNK1G2; details: at 10 µM
[11] = molecular target: Serine/threonine-protein kinase PAK 6 (Homo sapiens) (UniProt Q9NQU5); details: at 10 µM
[12] = molecular target: Serine/threonine-protein kinase MARK1 (Homo sapiens) (UniProt Q9P0L2); test: Selectivity interaction (KinomeScan (DiscoverX)) EUB0001619a MARK1; details: at 1 µM
Sequence of Serine/threonine-protein kinase MARK1 (Homo sapiens) (Q9P0L2 whole entry, looked up): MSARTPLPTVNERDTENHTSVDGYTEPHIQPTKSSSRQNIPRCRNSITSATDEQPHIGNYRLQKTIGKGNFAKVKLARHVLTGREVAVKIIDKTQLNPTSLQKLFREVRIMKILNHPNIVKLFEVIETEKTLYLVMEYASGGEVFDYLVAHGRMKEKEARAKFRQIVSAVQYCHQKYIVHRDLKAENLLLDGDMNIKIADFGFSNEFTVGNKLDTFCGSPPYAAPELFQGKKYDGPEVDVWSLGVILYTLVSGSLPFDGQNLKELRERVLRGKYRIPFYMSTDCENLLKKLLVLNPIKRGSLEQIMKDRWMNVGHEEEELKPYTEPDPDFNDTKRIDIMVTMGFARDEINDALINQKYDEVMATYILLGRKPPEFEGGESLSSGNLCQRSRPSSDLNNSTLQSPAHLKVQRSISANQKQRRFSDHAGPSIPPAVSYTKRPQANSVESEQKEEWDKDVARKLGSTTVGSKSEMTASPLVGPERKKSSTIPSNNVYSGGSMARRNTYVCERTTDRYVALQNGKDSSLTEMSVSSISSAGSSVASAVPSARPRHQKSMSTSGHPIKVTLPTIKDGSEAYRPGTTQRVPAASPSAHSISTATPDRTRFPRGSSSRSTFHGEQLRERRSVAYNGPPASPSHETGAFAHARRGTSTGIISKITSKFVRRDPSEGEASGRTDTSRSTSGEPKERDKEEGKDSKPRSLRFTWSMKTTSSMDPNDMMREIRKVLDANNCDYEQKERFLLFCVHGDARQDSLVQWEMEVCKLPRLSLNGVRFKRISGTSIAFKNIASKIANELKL

[13] = molecular target: Serine/threonine-protein kinase NIM1 (Homo sapiens, UniProt Q8IY84); test: Selectivity interaction (KinomeScan (DiscoverX)) EUB0001619a NIM1K; details: at 1 µM
Sequence of Serine/threonine-protein kinase NIM1 (Q8IY84 whole entry): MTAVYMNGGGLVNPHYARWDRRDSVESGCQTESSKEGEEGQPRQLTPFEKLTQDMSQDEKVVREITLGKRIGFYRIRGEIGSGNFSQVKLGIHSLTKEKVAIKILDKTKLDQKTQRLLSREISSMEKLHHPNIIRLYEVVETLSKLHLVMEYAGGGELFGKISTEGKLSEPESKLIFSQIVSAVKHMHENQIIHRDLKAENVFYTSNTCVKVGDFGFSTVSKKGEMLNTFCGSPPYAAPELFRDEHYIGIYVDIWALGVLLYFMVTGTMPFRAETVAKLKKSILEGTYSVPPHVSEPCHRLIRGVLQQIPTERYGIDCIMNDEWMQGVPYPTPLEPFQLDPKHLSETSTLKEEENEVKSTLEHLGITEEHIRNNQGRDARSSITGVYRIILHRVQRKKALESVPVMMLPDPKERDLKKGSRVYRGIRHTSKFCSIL

[14] = molecular target: Tyrosine-protein kinase Fyn (Homo sapiens) (UniProt P06241); test: Selectivity interaction (KinomeScan (DiscoverX)) EUB0001619a FYN; details: at 1 µM
Sequence of Tyrosine-protein kinase Fyn (Homo sapiens) (P06241 2-537 limits assumed): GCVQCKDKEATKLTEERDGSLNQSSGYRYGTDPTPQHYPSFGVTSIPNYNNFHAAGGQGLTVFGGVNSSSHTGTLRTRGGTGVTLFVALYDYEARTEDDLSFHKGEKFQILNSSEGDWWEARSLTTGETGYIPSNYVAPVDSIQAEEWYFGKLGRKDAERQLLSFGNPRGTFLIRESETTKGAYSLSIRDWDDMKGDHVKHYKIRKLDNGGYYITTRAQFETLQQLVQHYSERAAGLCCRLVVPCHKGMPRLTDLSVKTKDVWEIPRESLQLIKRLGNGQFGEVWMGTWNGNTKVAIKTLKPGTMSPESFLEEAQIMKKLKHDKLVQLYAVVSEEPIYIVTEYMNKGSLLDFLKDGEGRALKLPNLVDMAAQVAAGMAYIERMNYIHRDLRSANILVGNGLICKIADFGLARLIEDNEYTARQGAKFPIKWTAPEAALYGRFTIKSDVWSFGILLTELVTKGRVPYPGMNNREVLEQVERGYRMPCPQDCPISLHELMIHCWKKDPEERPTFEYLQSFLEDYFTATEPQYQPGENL

[15] = molecular target: ALK tyrosine kinase receptor (Homo sapiens, UniProt Q9UM73); test: Selectivity interaction (SelectScreen profiling (Invitrogen)) EUB0000607a ALK; details: at 2 µM
[16] = system: Fibroblast growth factor receptor 3 (Homo sapiens), P22607 [K650M]; test: (§1) Selectivity interaction (LanthaScreen Eu Kinase Binding Assay) EUB0001632a FGFR3; details: at 10 µM
[17] = system: Fibroblast growth factor receptor 3 (Homo sapiens), P22607 [G697C]; test: as §1; details: at 10 µM

`O=C(NOC[C@H](O)CO)c1ccc(F)c(F)c1Nc1ccc(I)cc1F` showed a % of control [1] of 100% and a % of control [2] of 92%.

In the case of `CNCCN1CCC(c2cc(CN(C)C(=O)c3cccc(Oc4ccccc4)c3)ccn2)CC1`, the % activity [3] is reported as > 90%.

`Nc1cnc(N2CCc3cc(S(=O)(=O)Nc4c(F)cc(Cl)cc4F)cc(N4CCCC4=O)c32)nc1` [TP-020n] showed a % of inhibition (D(3) dopamine receptor) of -5.02%.

`CCN(CC)CCCCNc1ncc2cc(-c3cc(OC)cc(OC)c3)c(NC(=O)NC(C)(C)C)nc2n1` gave a % of control [4] of 100% and a % of control [5] of 100%.

`CC[C@@H]1[C@H](F)C(=O)N[C@@H]1COc1nccc2cc(C(N)=O)c(OC)cc12` [ZIMLOVISERTIB] showed a % of inhibition [6] of 6.9% and a % of inhibition [7] of 2.6%.

`CCC(=O)N1CCN(c2ccc(-n3c(=O)ccc4cnc5ccc(-c6cnc7ccccc7c6)cc5c43)cc2C(F)(F)F)CC1` was tested, and the % of control [8] was 100%.

`O[C@H]1CC[C@H](Nc2ncc3nc(Nc4c(F)cc(F)cc4F)n([C@H]4CCOC4)c3n2)CC1` was tested, and the % of control [9] was 35% and the % of control [10] was 100%.

In the case of `Cc1cc([C@@H](C)Nc2ccccc2C(=O)O)c2nc(N3CCOCC3)cc(=O)n2c1` [AZD-6482], the % of control [11] is reported as 93%.

`N#Cc1cccc(-c2c[nH]c3ncnc(N4CCOCC4)c23)c1` showed a % of control [12] of 91%, a % of control [13] of 80% and a % of control [14] of 86%.

`CNC(=O)Nc1ccc(-c2nc(N3CC4CCC(C3)O4)c3cnn(C4CCC5(CC4)OCCO5)c3n2)cc1` was tested, and the % of inhibition [15] was 0%.

With `Cn1cc(-n2cnc3c(NCc4nc5cc(Cl)c(Cl)cc5[nH]4)nc(N4CCOCC4)nc32)cn1` the % of inhibition [16] was -215% and the % of inhibition [17] was -105%.
